Data from patent US6436933B1 (priority 2001, dated 2002).

Biological target: T1, Anthrax Lethal Factor (ALF) (Bacillus anthracis, UniProt P15917)
Assay: not given
Type: biochemical
Settings: not given

T1 sequence (P15917 34-809 limits assumed): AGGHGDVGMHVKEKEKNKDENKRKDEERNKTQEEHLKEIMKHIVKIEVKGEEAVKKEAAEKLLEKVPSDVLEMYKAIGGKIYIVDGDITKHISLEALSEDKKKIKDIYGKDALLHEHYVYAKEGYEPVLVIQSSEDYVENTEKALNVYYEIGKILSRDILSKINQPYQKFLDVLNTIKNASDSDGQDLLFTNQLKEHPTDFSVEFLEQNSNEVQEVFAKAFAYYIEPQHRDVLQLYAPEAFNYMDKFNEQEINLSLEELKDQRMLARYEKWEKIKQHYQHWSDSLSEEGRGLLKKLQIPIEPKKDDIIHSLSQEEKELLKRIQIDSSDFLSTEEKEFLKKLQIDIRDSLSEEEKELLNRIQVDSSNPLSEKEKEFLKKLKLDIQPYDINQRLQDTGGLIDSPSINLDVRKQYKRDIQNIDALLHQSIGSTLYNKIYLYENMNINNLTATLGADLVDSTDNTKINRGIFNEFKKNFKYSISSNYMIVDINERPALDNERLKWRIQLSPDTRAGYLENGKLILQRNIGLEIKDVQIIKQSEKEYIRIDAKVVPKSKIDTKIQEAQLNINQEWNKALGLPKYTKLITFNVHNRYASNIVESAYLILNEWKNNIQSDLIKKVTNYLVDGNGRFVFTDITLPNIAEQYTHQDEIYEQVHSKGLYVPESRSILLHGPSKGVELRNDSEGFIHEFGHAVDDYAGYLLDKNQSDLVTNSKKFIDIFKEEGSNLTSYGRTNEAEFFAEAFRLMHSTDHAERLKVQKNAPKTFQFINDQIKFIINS

Point of comparison: `Cc1c(-c2ccccc2)nc(CC(C)C)c(=O)n1O` [Compound 3, 1-hydroxy-6-methyl-3-(2-methylpropyl)-5-phenylhydropyrazin-2-one], “Activity by Gel, % @ 200” value 0% @ 200. Against it:
- CC(C)c1nc(-c2ccccc2)c(-c2ccccc2)n(O)c1=O [Compound 1, 3-isoprpyl-5,6dipheny-1-1-hydroxy-2-oxo-1,2-dihydropyrazine] — the same, 0% @ 200
- CCc1nc(C(C)C)c(=O)n(O)c1CC [Compound 2, 3-isopropyl-5,6diethyl-1-hydroxy-2-oxo-1,2dihydropyrazine] — the same, 0% @ 200
- CC(C)Cc1nc(-c2ccccc2)cn(O)c1=O [Compound 4, 1-hydroxy-3-(2-methylpropyl)-5-phenylhydropyrazin-2-one] — the same, 0% @ 200
- O=c1c(Cc2ccccc2)nc(-c2ccccc2)c(-c2ccccc2)n1O [Compound 5, 1-hydroxy-5,6-diphenyl-3-benzylhydropyrazin-2-one] — higher, 45% @ 200

With `O=c1c(Cc2ccc(-c3ccccc3)cc2)nc(-c2ccccc2)c(-c2ccccc2)n1O` [Compound 11, 3-(4′-phenyl)-benzyl-5,6diphenyl-1-hydroxy-2-oxo-1,2-dihydropyrazine] the “Activity by Gel, % @ 100” value was 2% @ 100.

Biological target: T1, Anthrax Lethal Factor (ALF)
Assay: biochemical
Type: biochemical
Settings: not given

Point of comparison: `O=c1c(Cc2ccccc2)nc(-c2ccccc2)cn1O` [Compound 7, 1-hydroxy-5-phenyl-3-benzylhydropyrazin-2-one], IC50 15 µM. Against it:
- O=c1c(Cc2ccccc2)nc(-c2ccccc2)c(-c2ccccc2)n1O [Compound 5, 1-hydroxy-5,6-diphenyl-3-benzylhydropyrazin-2-one] — 2.5-fold lower, 6 µM
- Cc1c(-c2ccccc2)nc(Cc2ccccc2)c(=O)n1O [Compound 6, 1-hydroxy-6-methyl-5-phenyl-3-benzylhydropyrazin-2-one] — 4.7-fold higher, 70 µM
- Cc1c(-c2ccccc2)nc(Cc2ccc(-c3ccccc3)cc2)c(=O)n1O [Compound 12, 3-(4′-phenyl)-benzyl-5-phenyl-6-methyl-1-hydroxy-2-oxo-1,2-dihydropyrazine] — the same, 15 µM
- O=c1c(Cc2ccccc2)nc(-c2ccc(C3CCCCC3)cc2)cn1O [Compound 18, 5-(4-cyclohexylphenyl)-1-hydroxy-3-benzylhydropyrazin-2-one] — 1.9-fold lower, 8 µM
- O=c1c(Cc2ccc(-c3ccccc3)cc2)nc(-c2ccc(-c3ccccc3)cc2)cn1O [Compound 28, 1-hydroxy-5-(4-phenylphenyl)-3-[(4-phenylphenyl)methyl]hydropyrazin-2-one] — within 1.5-fold, 12 µM
- O=c1c(Cc2ccc(-c3ccccc3)cc2)nc(-c2ccc(Br)cc2)cn1O [Compound 31, 5-(4-bromophenyl)-1-hydroxy-3-[(4-phenylphenyl)methyl]hydropyrazin-2-one] — 3-fold lower, 5 µM

Point of comparison: `O=c1c(Cc2ccccc2)nc(-c2ccc(Cl)c(Cl)c2)cn1O` [Compound 39, 5-(3,4-dichlorophenyl)-1-hydroxy-3-benzylhydropyrazin-2-one], “Activity by plate, % @ 100” value 45% @ 100. Against it:
- O=c1c(Cc2ccccc2)nc(-c2ccc(N3CCOCC3)cc2)cn1O [Compound 14, 1-hydroxy-5-(4-morpholin-4-ylphenyl)-3-benzylhydropyrazin-2-one] — lower, 0% @ 100
- O=c1c(Cc2ccccc2)nc(-c2ccc(F)cc2)cn1O [Compound 15, 5-(4-fluorophenyl)-1-hydroxy-3-benzylhydropyrazin-2-one] — lower, 33% @ 100
- O=c1c(Cc2ccccc2)nc(-c2cccs2)cn1O [Compound 16, 1-hydroxy-3-benzyl-5-(2-thienyl)hydropyrazin-2-one] — lower, 33% @ 100
- O=c1c(Cc2ccccc2)nc(-c2ccc(-c3ccccc3)cc2)cn1O [Compound 17, 1-hydroxy-3-benzyl-5-(4-phenylphenyl)hydropyrazin-2-one] — lower, 41% @ 100
- O=c1c(Cc2ccccc2)nc(-c2ccc3ccccc3c2)cn1O [Compound 19, 1-hydroxy-5-(2-naphthyl)-3-benzylhydropyrazin-2-one] — higher, 59% @ 100
- O=c1c(Cc2ccccc2)nc(-c2ccc(Br)cc2)cn1O [Compound 20, 5-(4-bromophenyl)-1-hydroxy-3-benzylhydropyrazin-2-one] — higher, 63% @ 100
- O=c1c(Cc2ccccc2)nc(-c2ccc(O)cc2)cn1O [Compound 21, 1-hydroxy-5-(4-hydroxyphenyl)-3-benzylhydropyrazin-2-one] — lower, 7% @ 100
- O=c1c(Cc2ccccc2)nc(-c2ccc3c(c2)OCO3)cn1O [Compound 22, 5-(2H-benzo[d]1,3-dioxolen-5-yl)-1-hydroxy-3-benzylhydropyrazin-2-one] — lower, 39% @ 100
- O=c1c(Cc2ccccc2)nc(-c2ccc([N+](=O)[O-])cc2)cn1O [Compound 23, 1-hydroxy-5-(4-nitrophenyl)-3-benzylhydropyrazin-2-one] — lower, 7% @ 100
- N#Cc1ccc(-c2cn(O)c(=O)c(Cc3ccccc3)n2)cc1 [Compound 24, 4-[4-hydroxy-5-oxo-6-benzyl-4-hydropyrazin-2-yl]benzenecarbonitrile] — lower, 41% @ 100
- CC(=O)Nc1ccc(-c2cn(O)c(=O)c(Cc3ccccc3)n2)cc1 [Compound 25, N-{4-[4-hydroxy-5-oxo-6-benzyl-4-hydropyrazin-2-yl]phenyl}acetamide] — lower, 19% @ 100
- O=c1c(Cc2ccc(-c3ccccc3)cc2)nc(-c2ccc(N3CCOCC3)cc2)cn1O [Compound 26, 1-hydroxy-5-(4-morpholin-4-ylphenyl)-3-[(4-phenylphenyl)methyl] hydropyrazin-2-one] — lower, 37% @ 100
- O=c1c(Cc2ccc(-c3ccccc3)cc2)nc(-c2ccc(F)cc2)cn1O [Compound 27, 5-(4-fluorophenyl)-1-hydroxy-3-[(4-phenylphenyl)methyl]hydropyrazin-2-one] — lower, 12% @ 100
- O=c1c(Cc2ccc(-c3ccccc3)cc2)nc(-c2ccc(C3CCCCC3)cc2)cn1O [Compound 29, 5-(4-cyclohexylphenyl)-1-hydroxy-3-[(4-phenylphenyl)methyl] hydropyrazin-2-one] — higher, 59% @ 100
- O=c1c(Cc2ccc(-c3ccccc3)cc2)nc(-c2ccc3ccccc3c2)cn1O [Compound 30, 1-hydroxy-5-(2-naphthyl)-3-[(4-phenylphenyl)methyl]hydropyrazin-2-one] — higher, 54% @ 100
- O=c1c(Cc2ccc(-c3ccccc3)cc2)nc(-c2ccc3c(c2)OCO3)cn1O [Compound 32, 5-(2H-benzo[d]1,3-dioxolen-5-yl)-1-hydroxy-3-[(4-phenylphenyl)methyl] hydropyrazin-2-one] — lower, 40% @ 100
- N#Cc1ccc(-c2cn(O)c(=O)c(Cc3ccc(-c4ccccc4)cc3)n2)cc1 [Compound 33, 4-{4-hydroxy-5-oxo-6-[(4-phenylphenyl)methyl]-4-hydropyrazin-2-yl} benzenecarbonitrile] — higher, 51% @ 100
- Cc1cc(-c2cn(O)c(=O)c(Cc3ccccc3)n2)ccc1Cl [Compound 40, 5-(4-chloro-3-methylphenyl)-1-hydroxy-3-benzylhydropyrazin-2-one] — lower, 18% @ 100
- Cc1ccc(-c2cn(O)c(=O)c(Cc3ccccc3)n2)cc1 [Compound 41, 1-hydroxy-5-(4-methylphenyl)-3-benzylhydropyrazin-2-one] — lower, 13% @ 100
- CCCCCc1ccc(-c2cn(O)c(=O)c(Cc3ccccc3)n2)cc1 [Compound 42, 1-hydroxy-5-(4-pentylphenyl)-3-benzylhydropyrazin-2-one] — lower, 16% @ 100
- O=c1c(Cc2ccccc2)nc(-c2ccc(C(F)(F)F)cc2)cn1O [Compound 43, 1-hydroxy-3-benzyl-5-[4-(trifluoromethyl)phenyl]hydropyrazin-2-one] — lower, 0% @ 100
- O=c1c(Cc2ccc(-c3ccccc3)cc2)nc(-c2ccc(Cl)c(Cl)c2)cn1O [Compound 44, 5-(3,4-dichlorophenyl)-1-hydroxy-3-[(4-phenylphenyl)methyl] hydropyrazin-2-one] — the same, 45% @ 100
- Cc1cc(-c2cn(O)c(=O)c(Cc3ccc(-c4ccccc4)cc3)n2)ccc1Cl [Compound 45, 5-(4-chloro-3-methylphenyl)-1-hydroxy-3-[(4-phenylphenyl)methyl] hydropyrazin-2-one] — higher, 47% @ 100
- Cc1ccc(-c2cn(O)c(=O)c(Cc3ccc(-c4ccccc4)cc3)n2)cc1 [Compound 46, 1-hydroxy-5-(4-methylphenyl)-3-[(4-phenylphenyl)methyl]hydropyrazin-2-one] — higher, 46% @ 100
- CCCCCc1ccc(-c2cn(O)c(=O)c(Cc3ccc(-c4ccccc4)cc3)n2)cc1 [Compound 47, 1-hydroxy-5-(4-pentylphenyl)-3-[(4-phenylphenyl)methyl]hydropyrazin-2-one] — lower, 39% @ 100
- O=c1c(Cc2ccc(-c3ccccc3)cc2)nc(-c2ccc(C(F)(F)F)cc2)cn1O [Compound 48, 1-hydroxy-3-[(4-phenylphenyl)methyl]-5-[4-(trifluoromethyl)phenyl] hydropyrazin-2-one] — lower, 25% @ 100

Test system: B anthracis
Assay: not given
Settings: monkey, in vivo; cited from earlier work

For `O=C(O)c1cn(C2CC2)c2cc(N3CCNCC3)c(F)cc2c1=O` [ciprofloxacin], the “monkeys that survived a lethal aerosol challenge” value is given as 8 of 9.
In the case of penicillin, the “monkeys that survived a lethal aerosol challenge” value is listed as 7 of 10.
